Reference: US20250064791A1, “5-[[4-[2-[5-(1-HYDROXYETHYL)PYRIDIN-2-YL]ETHOXY]PHENYL]METHYL]-1,3-THIAZOLIDINE-2,4-DIONE AND ITS SALTS FOR USE IN THE TREATMENT OF MITOCHONDRIAL DISEASES” (MINORYX THERAPEUTICS S.L., priority 2018, published 2025)

Legend:
[1] = tested on: wild type MDA MB 231 cells; assay: Mitochondrial respiration (OCR), Seahorse, wild type MDA MB231 cells; assay type: cell-based; details: cells with active MPC
Procedure: (§1) To determine whether MIN-102 has any effect on pyruvate-mediated mitochondrial respiration, the extracellular flux analyzer Seahorse was used as described in Compan et al. Seahorse experiments were performed in the following cell lines: HeLa (Cervix cancer cells), A549 (lung cancer cells), wild type MDA MB 231, and MDA MB 231 in which MPC2 has been deleted, leading to inactivation of the MPC (MDA MB231 KO). MDA MB231 cells are epithelial breast cancer cells. Cells were incubated with increasing concentrations of the compounds for one hour at 37° C. before oxygen consumption rate (OCR) measurements. The Seahorse analyzer allowed to measure basal and maximal respiration measured upon depolarization with 1 μM CCCP.
(§2) The KO cells have been deleted of the MPC2 gene and therefore they display no MPC activity. […] OCR values are expressed as ratios of OCR in the presence of different concentrations of the tested compound over the OCR in PBS alone.

MDA MB231 KO cells = assay: Mitochondrial respiration (OCR), Seahorse, MDA MB231 KO cells (MPC2 deleted); assay type: cell-based; details: MPC activity genetically deleted (MPC2 KO)
Procedure: as §1, §2

adiponectin = assay: Plasma adiponectin levels in Sprague Dawley rats (ELISA); assay type: in vivo; details: 54 mg/Kg/day for 7 days, plasma 1 h after last administration, vs vehicle
Procedure: Evaluation of the effect of Compounds of the Disclosure on adiponectin was performed in Sprague Dawley rats. The rats were treated for 7 days with repeated doses of MIN-102 at 54 mg/Kg/day. Plasma were obtained at 1 h after the last M1N-102 administration. Adiponectin levels were measured by ELISA. Results were represented as mean+standard error of the mean of n=8. Data were analyzed by Kruskal-Wallis followed by the Dunn post-hoc test versus the vehicle group (****,p<0.0001).

[2] = tested on: MCD diet fed C57BL6/J mice; assay: Methionine Choline Deficient (MCD) diet NASH mouse model; assay type: in vivo, C57BL6/J male mice; details: 62.5 mg/kg BID orally
Procedure: The preventive effects of MIN-102 was evaluated in a 7-week Methionine Choline Deficient (MCD) diet NASH mouse model (Verdelho Machado et al.). After the acclimation period, C57BL6/J male mice (n=20) were weighed and randomized into 2 homogenous treatment groups based on body weight (n=10/group), put on a MCD diet, and treated BID orally with vehicle or MIN-102 for 7 weeks.
MIN-102 was dosed 62.5 mg/kg BID orally by gavage.
After the acclimation period, C57BL6/J male mice (n=20) were weighed and randomized into 2 homogenous treatment groups based on body weight (n=10/group), put on a MCD diet, and treated BID orally with a vehicle or MIN-102 (125 mg/Kg/day) for 7 weeks. Body weight was measured 3 times/week until the end of the experimental phase.
At 7 weeks of diet/treatment, mice were weighed and treated at ˜08:00 am in the morning, then bled (maximal volume/EDTA) at ˜1:00 pm. Plasma was then immediately isolated and stored at −80° C. prior to assay plasma ALT and AST. The plasma volume left over was stored at −80° C. for eventual additional analysis.
After blood collection, the mice were sacrificed by cervical dislocation under isoflurane anesthesia and exsanguinated with sterile saline.
Histology analysis was performed (oil red O, H&E and Sirius Red staining) for NAFLD scoring system (NAS) for liver steatosis, inflammation, fibrosis and hepatocyte ballooning.

[3] = humans, compared with pioglitazone; from PCT/IB2017/057587; cited from earlier work
[4] = target: mitochondrial pyruvate carrier (MPC) (Homo sapiens (Human), UniProt O95563+Q9Y5U8); assay: MPC inhibitory activity, BRET assay in HEK cells; assay type: cell-based
mitochondrial pyruvate carrier (MPC), sequence (Q9Y5U8 whole entry, the tested form may be a part): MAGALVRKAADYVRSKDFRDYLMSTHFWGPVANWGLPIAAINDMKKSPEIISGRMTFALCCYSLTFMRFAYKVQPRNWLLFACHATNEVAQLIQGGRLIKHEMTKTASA
mitochondrial pyruvate carrier (MPC), sequence (O95563 whole entry, the tested form may be a part): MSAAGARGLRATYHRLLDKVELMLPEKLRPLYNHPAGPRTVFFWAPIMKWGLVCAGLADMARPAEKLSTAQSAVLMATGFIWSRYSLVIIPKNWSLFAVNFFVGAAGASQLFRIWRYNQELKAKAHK
Procedure: The MPC is a heterodimer composed of two subunits, MPC1 and MPC2. MPC1 and MPC2 interact to form an active carrier. In the assay, MPC2 was fused to Rluc8 (Donor) and MPC1 to Venus (Acceptor). These chimeric proteins were stably expressed in HEK cells. BRET activity was measured following addition of coelenterazine in the culture medium. Coelenterazine enters into cells and in contact with luciferase Rluc8 emits light, which activates the emission of fluorescence by the Acceptor, provided the distance between the Donor and Acceptor is <[…]. If the distance between Donor and Acceptor is >[…], no BRET activity is measured. The level of BRET activity reflects a change in the conformation of the MPC: it is high when the carrier is in a closed conformation, low when the carrier is at rest and intermediary when it transports pyruvate. In this case, the BRET activity is the mean value between the BRET value when the carrier is at rest (Maximal distance between Donor and Acceptor) and the BRET value when it is closed (Shortest distance between Donor and Acceptor)

## CC(O)c1ccc(CCOc2ccc(CC3SC(=O)NC3=O)cc2)nc1 (racemic) [MIN-102, 5-[[4-[2-[5-(1-hydroxyethyl)pyridin-2-yl]ethoxy]phenyl]methyl]-1,3-thiazolidine-2,4-dione]
[1]
  effect on oxygen consumption: inhibits oxygen consumption in a MPC dependent manner
MDA MB231 KO cells
  effect on oxygen consumption: does not inhibit oxygen consumption
adiponectin
  adiponectin levels in plasma: significantly increased
[2]; 7 weeks
  hepatic cholesterol levels: did not show a change
[2]; 7 weeks, vs vehicle
  oil red o staining %: extremely low
  reduction in hepatic triglycerides levels: 92%
  reduction of plasma ALT level: 78%
  reduction of plasma AST level: 55%
[2]; 7 weeks, histology
  Mean NAS group score: 0.44±01
  liver inflammation: total disappearance of inflammation
[2]; 7 weeks, histology, vs vehicle
  steatosis score: blunted steatosis score
[2]; day 14 to day 50, vs vehicle
  body weight loss: less severe decline in body weight loss
[3]
  variability in exposure (PK variability): less variability in exposure than pioglitazone

## CN(CCOc1ccc(CC2SC(=O)NC2=O)cc1)c1ccccn1 (centres unmarked) [Rosiglitazone]
[4]
  IC50: 2000 nM
